Key:
Aromatase = target: T1, Aromatase (Homo sapiens, UniProt P11511); test: Aromatase activity in JEG3 cells (Protocol 6); assay type: cell-based; settings: intact JEG3 cells, [1β-3H]androstenedione, 30 min
T1 construct: host or cells: JEG3 choriocarcinoma cells, intact monolayers
T1 sequence (P11511 1-503): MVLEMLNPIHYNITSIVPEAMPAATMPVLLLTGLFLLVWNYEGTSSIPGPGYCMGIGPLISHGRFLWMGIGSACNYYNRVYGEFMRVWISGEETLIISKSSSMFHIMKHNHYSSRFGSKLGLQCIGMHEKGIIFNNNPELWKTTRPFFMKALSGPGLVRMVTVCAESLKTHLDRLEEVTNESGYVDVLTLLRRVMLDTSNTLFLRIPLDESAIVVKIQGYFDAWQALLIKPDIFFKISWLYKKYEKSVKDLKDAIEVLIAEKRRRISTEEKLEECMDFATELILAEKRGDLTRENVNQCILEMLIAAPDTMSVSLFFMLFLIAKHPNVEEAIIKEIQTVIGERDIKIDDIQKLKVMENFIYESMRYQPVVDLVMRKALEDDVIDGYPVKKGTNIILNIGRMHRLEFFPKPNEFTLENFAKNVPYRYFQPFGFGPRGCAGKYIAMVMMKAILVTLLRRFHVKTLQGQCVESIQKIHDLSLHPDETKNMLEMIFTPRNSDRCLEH
Experimental: Assay for Determining Aromatase Activity Using JEG3 Cells
Aromatase activity is measured in JEG3 choriocarcinoma cells, obtained from the ATCC. […] During the aromatase reaction, ^3H2O is liberated which can be quantified using a liquid scintillation spectrometer. […] The number of cell nuclei per flask is determined using a Coulter Counter after treating the cell monolayers with Zaponin.
Aromatase inhibition was measured in accordance with Protocol 6.

Steroid sulphatase (STS) = target: T2, Steroid sulphatase (STS) (Homo sapiens, UniProt P08842); test: Inhibition of steroid sulphatase activity in JEG3 cells (Protocol 1); assay type: cell-based; settings: intact JEG3 cells, [6,7-3H]oestrone-3-sulphate, 3-4 hours
T2 construct: host or cells: JEG3 choriocarcinoma cells, intact monolayers
T2 sequence (P08842 22-583): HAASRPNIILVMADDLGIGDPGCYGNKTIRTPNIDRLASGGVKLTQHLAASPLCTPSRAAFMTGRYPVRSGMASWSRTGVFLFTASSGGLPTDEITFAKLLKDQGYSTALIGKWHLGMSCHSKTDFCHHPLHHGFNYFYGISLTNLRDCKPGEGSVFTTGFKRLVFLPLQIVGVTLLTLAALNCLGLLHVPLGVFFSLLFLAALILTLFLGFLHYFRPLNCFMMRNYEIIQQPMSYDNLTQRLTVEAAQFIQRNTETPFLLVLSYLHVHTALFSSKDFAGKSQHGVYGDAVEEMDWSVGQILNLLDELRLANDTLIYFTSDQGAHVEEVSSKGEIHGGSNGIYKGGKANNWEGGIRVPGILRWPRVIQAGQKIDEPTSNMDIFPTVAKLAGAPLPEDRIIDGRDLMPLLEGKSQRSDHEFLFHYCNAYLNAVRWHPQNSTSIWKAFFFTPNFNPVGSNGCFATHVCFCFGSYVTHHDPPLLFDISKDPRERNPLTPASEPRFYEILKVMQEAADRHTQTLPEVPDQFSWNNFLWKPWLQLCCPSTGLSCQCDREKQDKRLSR
Experimental: Assay for Determining STS Activity Using Cancer Cells
Inhibition of Steroid Sulphatase Activity in JEG3 Cells
Steroid sulphatase activity is measured in vitro using intact JEG3 choriocarcinoma cells.
Cells are maintained in Minimal Essential Medium (MEM) containing 20 mM HEPES, 5% foetal bovine serum, 2 mM glutamine, non-essential amino acids and 0.075% sodium bicarbonate. Up to 30 replicate 25 cm^2 tissue culture flasks are seeded with approximately 1×10^5 cells/flask using the above medium Cells are grown to 80% confluency and the medium is changed every third day.
Intact monolayers of JEG3 cells in triplicate 25 cm^2 tissue culture flasks are washed with Earle's Balanced Salt Solution (EBSS) and incubated for 3-4 hours at 37° C. with 5 pmol (7×10^5 dpm) [6, 7-3H]oestrone-3-sulphate (specific activity 60 Ci/mmol) in serum-free MEM (2.5 ml) together with oestrone-3-sulphamate (11 concentrations: 0; 1fM; 0.01 pM; 0.1 pM, 1 pM; 0.01 nM; 0.1 nM; 0.01 mM; 0.1 mM; 1 mM). After incubation each flask is cooled and the medium (1 ml) is pipetted into separate tubes containing [14C]oestrone (7×10^3 dpm) (specific activity 97 Ci/mmol). The mixture is shaken thoroughly for 30 seconds with toluene (5 ml) Experiments have shown that >90% [14C]oestrone and <0 1% [3H]oestrone-3-sulphate is removed from the aqueous phase by this treatment A portion (2 ml) of the organic phase is removed, evaporated and the 3H and 14C content of the residue determined by scintillation spectrometry The mass of oestrone-3-sulphate hydrolysed was calculated from the 3H counts obtained (corrected for the volumes of the medium and organic phase used, and for recovery of [14C] oestrone added) and the specific activity of the substrate Each batch of experiments includes incubations of microsomes prepared from a sulphatase-positive human placenta (positive control) and flasks without cells (to assess apparent non-enzymatic hydrolysis of the substrate). The number of cell nuclei per flask is determined using a Coulter Counter after treating the cell monolayers with Zaponin One flask in each batch is used to assess cell membrane status and viability using the Trypan Blue exclusion method (Phillips, H J. (1973) In: Tissue culture and applications, [eds: Kruse, D. F. & Patterson, M. K]; pp 406-408; Academic Press, New York)
Results for steroid sulphatase activity are expressed as the mean±1S.D. of the total product (oestrone+oestradiol) formed during the incubation period (3-4 hours) calculated for […] and, for values showing statistical significance, as a percentage reduction (inhibition) over incubations containing no oestrone-3-sulphamate. Unpaired Student's t-test was used to test the statistical significance of results
Sterioid sulphatase inhibition was measured in accordance with Protocol 1

IC50 (Aromatase)	IC50 (Steroid sulphatase (STS))	Compound
36 ± 1.7 nM	198 ± 37 nM	N#Cc1ccc(N(Cc2ccc(OS(N)(=O)=O)cc2)n2cnnc2)cc1-c1ccncc1 [Compound 51]
0.015 ± 0.001 nM	22 ± 6 nM	COc1ccc(-c2cc(N(Cc3ccc(OS(N)(=O)=O)cc3)n3cnnc3)ccc2C#N)cc1 [CAB06077]
< 0.1 nM	60 ± 7 nM	N#Cc1ccc(N(Cc2ccc(OS(N)(=O)=O)cc2)n2cnnc2)cc1N1CCCC1 [Compound 15]
89 ± 10.2 nM	2800 ± 985 nM	CN1CCN(c2cc(N(Cc3ccc(OS(N)(=O)=O)cc3)n3cnnc3)ccc2C#N)CC1 [Compound 23]
850 ± 104 nM	1300 ± 265 nM	N#Cc1ccc(N(Cc2ccc(OS(N)(=O)=O)cc2)n2cnnc2)cc1N1CCCCCC1=O [Compound 11]
0.05 ± 0.01 nM	2900 ± 100 nM	N#Cc1ccc(N(Cc2ccc(Br)cc2)n2cnnc2)cc1-c1ccc(OS(N)(=O)=O)cc1 [CAB06059, 5′-((4-Bromobenzyl)(4H-1,2,4-triazol-4-yl)amino)-2′-cyanobiphenyl-4-yl sulfamate]
3.4 ± 0.2 nM	43 ± 6 nM	N#Cc1ccc(N(Cc2ccc(OS(N)(=O)=O)cc2)n2cnnc2)cc1N1CCCCC1 [Compound 17]
0.25 ± 0.03 nM	3 ± 0.5 nM	N#Cc1ccc(N(Cc2ccc(OS(N)(=O)=O)cc2)n2cnnc2)cc1-c1ccccc1 [Compound 3]
< 0.1 nM	41 ± 3 nM	N#Cc1ccc(N(Cc2ccc(OS(N)(=O)=O)cc2)n2cnnc2)cc1Cc1ccccc1 [Compound 13]
97 ± 2.7 nM	4360 ± 554 nM	N#Cc1ccc(N(Cc2ccc(OS(N)(=O)=O)cc2)n2cnnc2)cc1CN1CCCC1 [Compound 41]
3.2 ± 0.1 nM	181 ± 8 nM	N#Cc1ccc(N(Cc2ccc(OS(N)(=O)=O)cc2)n2cnnc2)cc1N1CCCCCC1 [Compound 19]
44 ± 5 nM	–	N#Cc1ccc(N(Cc2ccc(OS(N)(=O)=O)cc2)n2cnnc2)cc1N1CCOCC1 [Compound 21]
13.8 ± 4.51 nM	–	CN1CCN(c2cc(N(Cc3ccc(O)cc3)n3cnnc3)ccc2C#N)CC1 [Compound 22]

The remaining lines, values behind:

Compound	IC50 (Aromatase)	IC50 (Steroid sulphatase (STS))
N#Cc1ccc(N(Cc2ccc(O)cc2)n2cnnc2)cc1CN1CCCC1 [Compound 40]	8 nM	–
N#Cc1ccc(N(Cc2ccc(Br)cc2)n2cnnc2)c(-c2ccccc2)c1 [Compound 2]	960 ± 53 nM	–
N#Cc1ccc(N(Cc2ccc(O)cc2F)n2cnnc2)cc1-c1ccccc1 [Compound 30]	0.35 ± 0.06 nM	–
N#Cc1ccc(N(Cc2ccccc2)n2cnnc2)cc1-c1ccc(O)cc1 [CAB06052, 5-(Benzyl-[1,2,4]triazol-4-yl-amino)-4′-hydroxy-biphenyl-2-carbonitrile]	0.33 ± 0.01 nM	–
N#Cc1ccc(N(Cc2c(F)cc(OS(N)(=O)=O)cc2F)n2cnnc2)cc1-c1ccc(F)cc1 [Compound 47]	5.6 ± 0.1 nM	14 ± 0.87 nM
N#Cc1ccc(N(Cc2ccc(OS(N)(=O)=O)cc2F)n2cnnc2)cc1-c1ccccc1 [Compound 31]	1.43 ± 0.55 nM	0.15 ± 0.03 nM
N#Cc1ccc(N(Cc2ccc(OS(N)(=O)=O)cc2)n2cnnc2)cc1Oc1ccccc1 [Compound 57]	12.5 ± 2.3 nM	62 ± 13 nM
N#Cc1ccc(N(Cc2c(F)cc(O)cc2F)n2cnnc2)cc1-c1ccc(F)cc1 [Compound 46]	4.1 ± 0.2 nM	–
N#Cc1ccc(N(Cc2ccc(OS(N)(=O)=O)cc2)n2ccnc2)cc1-c1ccccc1 [Compound 32]	< 0.1 nM	9.7 ± 4.2 nM
N#Cc1ccc(N(Cc2ccc(OS(N)(=O)=O)c(F)c2F)n2cnnc2)cc1-c1ccccc1 [Compound 34]	0.8 ± 0.3 nM	2.8 ± 0.9 nM
COc1ccc(Cc2cc(N(Cc3ccc(O)cc3)n3cnnc3)ccc2C#N)cc1 [Compound 44]	3.1 ± 0.4 nM	–
N#Cc1ccc(N(Cc2ccc(O)cc2)n2cnnc2)cc1-c1ccccc1 [CAB06021, 5-((4-Hydroxybenzyl)(4H-1,2,4-triazol-4-yl)amino)biphenyl-2-carbonitrile]	< 0.1 nM	–
N#Cc1ccc(N(Cc2ccc(O)c(Br)c2)n2cnnc2)cc1-c1ccccc1 [CAB06026, 5-((3-Bromo-4-hydroxybenzyl)(4H-1,2,4-triazol-4-yl)amino)biphenyl-2-carbonitrile]	3.6 ± 0.4 nM	–
COc1ccc(-c2cc(N(Cc3c(F)cc(O)cc3F)n3cnnc3)ccc2C#N)cc1 [Compound 35]	< 0.1 nM	–
COc1ccc(-c2cc(N(Cc3c(F)cc(OS(N)(=O)=O)cc3F)n3cnnc3)ccc2C#N)cc1 [Compound 36]	< 0.1 nM	0.1 nM
N#Cc1ccc(N(Cc2ccc(O)c(F)c2)n2cnnc2)cc1-c1ccccc1 [CAB06043, 5-((3-Fluoro-4-hydroxybenzyl)(4H-1,2,4-triazol-4-yl)amino)biphenyl-2-carbonitrile]	1.6 ± 0.6 nM	–
N#Cc1ccc(-c2cc(N(Cc3ccc(OS(N)(=O)=O)cc3)n3cnnc3)ccc2C#N)cc1 [CAB06088, 4-(((4′,6-Dicyanobiphenyl-3-yl)(4H-1,2,4-triazol-4-yl)amino)methyl)phenyl sulfamate]	0.75 ± 0.18 nM	240 ± 60 nM
N#Cc1ccc(N(Cc2ccccc2)n2cnnc2)cc1-c1ccc(OS(N)(=O)=O)cc1 [CAB06054, 5′-(Benzyl(4H-1,2,4-triazol-4-yl)amino)-2′-cyanobiphenyl-4-yl sulfamate]	0.1 ± 0.02 nM	2900 ± 180 nM
N#Cc1ccc(N(Cc2ccc(O)c(F)c2F)n2cnnc2)cc1-c1ccccc1 [Compound 33]	1 ± 0.3 nM	–
N#Cc1ccc(Nn2cnnc2)cc1-c1ccccc1 [CAB06022, 5-(4H-1,2,4-Triazol-4-ylamino)biphenyl-2-carbonitrile]	0.39 ± 0.09 nM	–
N#Cc1ccc(N(Cc2ccc(Br)cc2)n2cnnc2)cc1-c1ccccc1 [Compound 1]	< 0.1 nM	–
N#Cc1ccc(C(c2ccc(O)cc2)n2cncn2)cc1-c1ccccc1 (stereo not shown) [Compound 37]	0.23 ± 0.04 nM	–
N#Cc1ccc(N(CCc2c(F)cc(OS(N)(=O)=O)cc2F)n2cnnc2)cc1 [Compound 25]	–	485 ± 50.7 nM
N#Cc1ccc(N(Cc2ccc(O)cc2)n2cnnc2)cc1Oc1ccccc1 [Compound 56]	1.82 ± 0.03 nM	–
COc1ccc(-c2cc(Nn3cnnc3)ccc2C#N)cc1 [CAB06046, 5-(4H-1,2,4-Triazol-4-ylamino)-4′-methoxybiphenyl-2-carbonitrile]	0.26 ± 0.12 nM	–
N#Cc1ccc(N(Cc2ccc(O)cc2)n2cnnc2)cc1Cc1ccccc1 [Compound 12]	< 0.1 nM	–
N#Cc1ccc(N(Cc2ccc(O)cc2)n2cnnc2)cc1-c1ccncc1 [Compound 50]	4.03 ± 0.29 nM	–
N#Cc1ccc(N(CCc2c(F)cc(O)cc2F)n2cnnc2)cc1 [Compound 24]	0.14 ± 0.03 nM	–
N#Cc1ccc(N(Cc2ccc(OS(N)(=O)=O)cc2)n2cnnc2)c2ccccc12 [Compound 27]	200 ± 5 nM	–
